ChEMBL document CHEMBL1125504, “2-Substituted 1-azabicycloalkanes, a new class of non-opiate antinociceptive agents” (J Med Chem, 1992)
Activity calls are given as the source filed them. The rule behind the calls is not given here.

Experiments:
Mus musculus [1] = species on record: Mus musculus; assay: Antinociceptive activity using mouse abdominal constriction test; inactive; type: functional, organism-based; details: Abdomen
Mus musculus [2] = assay: Antinociceptive activity (100 mg/Kg) was determined using mouse tail flick test.; type: functional
Mus musculus [3] = assay: Antinociceptive activity (10 mg/Kg) was determined using mouse abdominal constriction test.; type: functional, Abdomen
Mus musculus [4] = assay: Antinociceptive activity (50 mg/Kg) was determined using mouse tail flick test.; type: functional
Mus musculus [5] = species on record: Mus musculus; assay: Antinociceptive activity in mice, determined using abdominal constriction test.; type: functional; details: Abdomen
Mus musculus [6] = species on record: Mus musculus; assay: Antinociceptive activity using mouse tail flick test; Inactive; type: functional, organism-based
Mus musculus [7] = assay: Antinociceptive activity in mice following i.p. treatment, determined using tail flick test.; type: functional; details: ip
[8] = target: T1, Adrenergic receptor alpha-2 (Rattus norvegicus, UniProt P22086+P19328+P22909); assay: Inhibitory constant was measured on alpha-2 adrenergic receptor /uptake using [3H] clonidine as radioligand in rat brain cortex; type: tissue-based
T1 sequence (P22086 whole entry): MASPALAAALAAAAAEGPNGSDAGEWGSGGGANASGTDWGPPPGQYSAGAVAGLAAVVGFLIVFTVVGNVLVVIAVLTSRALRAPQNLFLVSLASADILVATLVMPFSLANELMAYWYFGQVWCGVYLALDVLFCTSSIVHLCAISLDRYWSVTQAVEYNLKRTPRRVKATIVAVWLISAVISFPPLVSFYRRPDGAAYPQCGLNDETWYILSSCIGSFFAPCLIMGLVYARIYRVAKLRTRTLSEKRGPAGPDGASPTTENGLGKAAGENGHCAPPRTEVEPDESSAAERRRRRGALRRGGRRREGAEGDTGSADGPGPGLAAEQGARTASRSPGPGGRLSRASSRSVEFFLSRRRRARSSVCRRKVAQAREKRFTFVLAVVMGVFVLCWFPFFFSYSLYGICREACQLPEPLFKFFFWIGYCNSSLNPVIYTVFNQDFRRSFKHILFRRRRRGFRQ
T1 sequence (P19328 whole entry): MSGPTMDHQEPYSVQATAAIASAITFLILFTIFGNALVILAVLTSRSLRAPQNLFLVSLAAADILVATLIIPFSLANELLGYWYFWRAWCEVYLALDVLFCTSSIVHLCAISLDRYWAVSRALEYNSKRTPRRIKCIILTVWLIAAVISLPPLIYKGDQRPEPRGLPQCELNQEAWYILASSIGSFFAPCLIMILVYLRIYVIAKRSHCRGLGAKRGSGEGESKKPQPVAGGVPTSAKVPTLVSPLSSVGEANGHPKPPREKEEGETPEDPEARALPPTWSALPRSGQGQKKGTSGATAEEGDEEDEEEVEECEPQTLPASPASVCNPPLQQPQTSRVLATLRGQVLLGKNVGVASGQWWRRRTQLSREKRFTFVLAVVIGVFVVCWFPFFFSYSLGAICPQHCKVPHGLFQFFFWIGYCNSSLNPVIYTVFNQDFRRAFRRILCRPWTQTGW
T1 sequence (P22909 whole entry): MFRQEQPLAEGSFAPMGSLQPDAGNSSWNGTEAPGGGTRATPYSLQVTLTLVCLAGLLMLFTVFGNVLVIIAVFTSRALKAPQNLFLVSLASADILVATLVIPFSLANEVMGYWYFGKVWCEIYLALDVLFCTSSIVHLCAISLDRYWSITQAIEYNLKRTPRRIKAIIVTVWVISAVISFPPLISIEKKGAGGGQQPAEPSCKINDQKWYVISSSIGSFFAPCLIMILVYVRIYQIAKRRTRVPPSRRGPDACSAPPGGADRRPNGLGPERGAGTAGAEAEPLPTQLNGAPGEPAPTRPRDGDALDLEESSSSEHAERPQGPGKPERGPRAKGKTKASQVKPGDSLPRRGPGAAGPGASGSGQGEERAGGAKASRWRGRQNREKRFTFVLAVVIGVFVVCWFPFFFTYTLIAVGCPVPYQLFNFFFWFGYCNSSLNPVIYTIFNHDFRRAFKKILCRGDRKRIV

[9] = target: Serotonin 1 (5-HT1) receptor (Rattus norvegicus) (UniProt P28564+P30940+P19327+P28565); assay: Inhibition constant (1 uM) was measured on 5-hydroxytryptamine 1 receptor/uptake using [3H]- serotonin as radioligand in rat brain cortex.; type: tissue-based
[10] = target: Serotonin 2 (5-HT2) receptor (Rattus norvegicus) (UniProt P30994+P08909+P14842); assay: Inhibitory constant (1 uM) was measured on 5-hydroxytryptamine 2 receptor/uptake using [3H]- ketanserin as radioligand in rat brain cortex.; type: tissue-based
[11] = target: Adrenergic receptor alpha-1 (Rattus norvegicus) (UniProt P15823+P23944+P43140); assay: Inhibitory constant (1 uM) was measured on alpha-1 adrenergic receptor/uptake using [3H]- WB-4101 as radioligand in rat brain cortex.; type: tissue-based
[12] = target: D(2) dopamine receptor (Rattus norvegicus) (UniProt P61169); assay: Inhibitory constant (1 uM) was measured on dopamine receptor D2 using [3H]- spiperone as radioligand in rat brain striatum.; type: tissue-based
[13] = target: GABA-A receptor; anion channel (Rattus norvegicus) (UniProt O09028+P15431+P18506+P18508+P19969+P20236+P23574+P23576+P28471+P28473+P30191+P62813+P63079+P63138+Q91ZM7+Q9ES14); assay: Inhibition of [3H]GABA binding to gamma-aminobutyric-acid A (GABA-A) receptor of rat brain cerebellum at 10 uM; type: tissue-based
[14] = target: Opioid receptor (Rattus norvegicus) (UniProt P33533+P34975+P33535); assay: Inhibitory constant (10 uM) was measured on opioid receptor/uptake using [3H]- naloxone as radioligand in rat whole brain.
[15] = target: Cannabinoid receptor (Rattus norvegicus) (UniProt Q9QZN9+P20272); assay: Inhibitory constant (10 uM) was measured on cannabinoid receptor/uptake using [3H]CP-55940 as radioligand in rat brain cortex.; type: tissue-based
[16] = target: Adrenergic receptor beta (Rattus norvegicus) (UniProt P18090+P10608+P26255); assay: Inhibitory constant (1 uM) was measured on beta adrenergic receptor/uptake using [3H]- dihydroalprenolol as radioligand in rat brain cortex.; type: tissue-based
[17] = target: T1, Adrenergic receptor alpha-2; assay: Inhibitory constant was measured on alpha-2 adrenergic receptor /uptake using [3H]- clonidine as radioligand in rat brain cortex.; type: tissue-based

Cannabinoid receptor (Rattus norvegicus), sequence (P20272 whole entry, looked up): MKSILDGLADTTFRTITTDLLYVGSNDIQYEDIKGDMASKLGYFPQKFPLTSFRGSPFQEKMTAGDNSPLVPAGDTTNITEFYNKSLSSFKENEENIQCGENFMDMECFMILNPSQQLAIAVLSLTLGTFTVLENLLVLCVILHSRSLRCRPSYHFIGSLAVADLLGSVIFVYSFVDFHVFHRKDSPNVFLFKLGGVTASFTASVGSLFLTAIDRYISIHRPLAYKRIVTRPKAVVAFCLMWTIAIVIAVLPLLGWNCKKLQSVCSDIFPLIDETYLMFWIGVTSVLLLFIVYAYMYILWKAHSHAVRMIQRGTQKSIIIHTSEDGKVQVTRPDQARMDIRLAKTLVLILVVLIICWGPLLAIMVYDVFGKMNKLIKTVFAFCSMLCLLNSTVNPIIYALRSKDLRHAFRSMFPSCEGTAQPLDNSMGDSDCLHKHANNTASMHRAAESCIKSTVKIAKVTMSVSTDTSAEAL
Cannabinoid receptor (Rattus norvegicus), sequence (Q9QZN9 whole entry, looked up): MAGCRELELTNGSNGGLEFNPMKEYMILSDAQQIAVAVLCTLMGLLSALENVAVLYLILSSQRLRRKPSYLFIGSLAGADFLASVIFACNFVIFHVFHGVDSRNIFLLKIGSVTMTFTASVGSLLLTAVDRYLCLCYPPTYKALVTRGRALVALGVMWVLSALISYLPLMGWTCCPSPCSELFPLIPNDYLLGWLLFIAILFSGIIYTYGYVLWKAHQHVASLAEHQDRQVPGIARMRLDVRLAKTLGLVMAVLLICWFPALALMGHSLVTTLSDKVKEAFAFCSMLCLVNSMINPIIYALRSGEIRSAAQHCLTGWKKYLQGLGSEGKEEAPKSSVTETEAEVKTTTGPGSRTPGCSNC
D(2) dopamine receptor (Rattus norvegicus), sequence (P61169 whole entry): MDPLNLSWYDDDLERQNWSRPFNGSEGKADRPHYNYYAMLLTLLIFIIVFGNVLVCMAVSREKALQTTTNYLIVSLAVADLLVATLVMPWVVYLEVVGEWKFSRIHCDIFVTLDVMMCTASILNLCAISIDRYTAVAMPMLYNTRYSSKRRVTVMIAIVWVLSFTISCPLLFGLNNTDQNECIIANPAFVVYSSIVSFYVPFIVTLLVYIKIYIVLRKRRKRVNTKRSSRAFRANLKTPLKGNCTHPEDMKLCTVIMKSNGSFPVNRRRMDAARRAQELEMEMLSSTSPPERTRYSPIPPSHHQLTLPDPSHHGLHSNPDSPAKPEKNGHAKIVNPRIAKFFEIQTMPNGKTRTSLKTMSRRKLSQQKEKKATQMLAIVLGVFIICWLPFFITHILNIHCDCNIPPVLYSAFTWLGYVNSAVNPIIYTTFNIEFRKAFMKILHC
Opioid receptor (Rattus norvegicus), sequence (P33533 whole entry, looked up): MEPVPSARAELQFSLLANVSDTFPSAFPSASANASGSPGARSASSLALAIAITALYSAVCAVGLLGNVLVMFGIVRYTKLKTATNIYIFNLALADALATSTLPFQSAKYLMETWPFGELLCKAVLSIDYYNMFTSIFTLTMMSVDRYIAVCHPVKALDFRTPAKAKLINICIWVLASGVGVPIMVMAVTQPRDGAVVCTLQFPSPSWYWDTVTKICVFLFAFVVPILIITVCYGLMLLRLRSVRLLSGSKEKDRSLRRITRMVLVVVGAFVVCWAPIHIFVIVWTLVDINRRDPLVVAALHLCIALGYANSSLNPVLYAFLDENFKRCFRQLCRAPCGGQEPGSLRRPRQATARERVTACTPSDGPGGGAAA
Opioid receptor (Rattus norvegicus), sequence (P33535 whole entry, looked up): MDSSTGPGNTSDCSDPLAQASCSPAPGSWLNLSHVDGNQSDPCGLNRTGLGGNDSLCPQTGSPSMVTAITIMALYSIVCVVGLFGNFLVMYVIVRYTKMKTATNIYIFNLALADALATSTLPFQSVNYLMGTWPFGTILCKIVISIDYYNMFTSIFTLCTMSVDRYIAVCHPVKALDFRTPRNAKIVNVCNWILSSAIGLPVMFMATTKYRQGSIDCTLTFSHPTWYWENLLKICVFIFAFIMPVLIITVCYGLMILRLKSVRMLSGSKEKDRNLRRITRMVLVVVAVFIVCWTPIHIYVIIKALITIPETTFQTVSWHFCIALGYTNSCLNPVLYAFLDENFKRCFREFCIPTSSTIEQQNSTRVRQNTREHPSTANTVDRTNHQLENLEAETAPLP
Opioid receptor (Rattus norvegicus), sequence (P34975 whole entry, looked up): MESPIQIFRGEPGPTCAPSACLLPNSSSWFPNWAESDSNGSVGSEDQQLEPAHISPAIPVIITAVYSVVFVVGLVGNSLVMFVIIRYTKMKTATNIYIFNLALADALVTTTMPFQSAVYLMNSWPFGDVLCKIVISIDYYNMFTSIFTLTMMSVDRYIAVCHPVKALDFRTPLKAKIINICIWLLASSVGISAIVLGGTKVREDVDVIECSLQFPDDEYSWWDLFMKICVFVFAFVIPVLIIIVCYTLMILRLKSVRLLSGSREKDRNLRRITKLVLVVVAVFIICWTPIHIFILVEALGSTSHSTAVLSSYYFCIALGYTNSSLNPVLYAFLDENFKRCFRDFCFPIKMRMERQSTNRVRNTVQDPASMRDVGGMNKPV
Serotonin 2 (5-HT2) receptor (Rattus norvegicus), sequence (P08909 whole entry, looked up): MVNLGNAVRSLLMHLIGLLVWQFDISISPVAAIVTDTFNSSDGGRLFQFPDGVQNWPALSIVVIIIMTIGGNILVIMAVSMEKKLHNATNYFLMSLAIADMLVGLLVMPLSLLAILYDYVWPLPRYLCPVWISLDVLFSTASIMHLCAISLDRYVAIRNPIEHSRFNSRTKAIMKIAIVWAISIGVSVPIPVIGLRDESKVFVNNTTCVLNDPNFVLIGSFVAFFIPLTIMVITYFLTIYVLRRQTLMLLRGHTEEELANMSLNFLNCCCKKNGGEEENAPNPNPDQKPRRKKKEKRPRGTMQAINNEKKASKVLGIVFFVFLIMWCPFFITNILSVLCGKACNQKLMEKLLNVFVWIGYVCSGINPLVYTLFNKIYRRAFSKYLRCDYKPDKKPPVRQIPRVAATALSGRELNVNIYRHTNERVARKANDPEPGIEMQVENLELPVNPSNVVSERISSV
Serotonin 2 (5-HT2) receptor (Rattus norvegicus), sequence (P14842 whole entry, looked up): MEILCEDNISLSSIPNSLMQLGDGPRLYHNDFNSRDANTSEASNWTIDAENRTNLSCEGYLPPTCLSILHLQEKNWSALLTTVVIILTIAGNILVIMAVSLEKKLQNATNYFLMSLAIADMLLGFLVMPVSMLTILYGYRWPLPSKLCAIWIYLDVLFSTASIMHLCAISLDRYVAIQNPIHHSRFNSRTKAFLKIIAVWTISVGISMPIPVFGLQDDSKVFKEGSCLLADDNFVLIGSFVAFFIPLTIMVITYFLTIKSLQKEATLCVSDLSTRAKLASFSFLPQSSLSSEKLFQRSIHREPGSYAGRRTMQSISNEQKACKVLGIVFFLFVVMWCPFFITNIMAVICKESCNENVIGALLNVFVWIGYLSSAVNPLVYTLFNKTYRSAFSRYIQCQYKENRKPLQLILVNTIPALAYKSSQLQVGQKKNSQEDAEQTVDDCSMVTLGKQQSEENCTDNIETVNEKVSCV
Serotonin 2 (5-HT2) receptor (Rattus norvegicus), sequence (P30994 whole entry, looked up): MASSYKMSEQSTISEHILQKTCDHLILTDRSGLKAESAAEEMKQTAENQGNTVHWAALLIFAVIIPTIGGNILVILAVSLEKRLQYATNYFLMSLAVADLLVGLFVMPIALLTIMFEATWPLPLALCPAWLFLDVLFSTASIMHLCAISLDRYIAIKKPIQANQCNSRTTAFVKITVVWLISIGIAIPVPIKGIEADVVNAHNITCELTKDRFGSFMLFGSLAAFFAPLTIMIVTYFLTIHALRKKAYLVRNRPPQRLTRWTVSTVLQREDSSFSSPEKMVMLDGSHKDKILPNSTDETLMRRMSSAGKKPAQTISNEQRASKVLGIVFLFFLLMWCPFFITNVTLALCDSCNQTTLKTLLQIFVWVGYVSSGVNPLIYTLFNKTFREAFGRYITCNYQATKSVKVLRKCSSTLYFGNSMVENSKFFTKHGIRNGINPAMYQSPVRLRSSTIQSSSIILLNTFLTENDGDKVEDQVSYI

## Brc1cccc([C@H]2CC[C@H]3CCCCN32)c1.Cl
Mus musculus [1]
  ED50: inactive
Mus musculus [2]
  Response: 60%

## C1CCC([C@H]2CC[C@H]3CCCCN32)CC1.Cl
Mus musculus [3]
  Response: 50%
Mus musculus [4]
  Response: 60%

## Cl.c1ccc(COc2ccc([C@H]3CC[C@H]4CCCCN43)cc2)cc1
Mus musculus [5]
  ED50: 16.8 mg/kg
Mus musculus [2]
  Response: 50%

## Brc1ccc([C@H]2CC[C@H]3CCCCN32)cc1.Cl
Mus musculus [5]
  ED50: 18.8 mg/kg
Mus musculus [6]
  ED50: inactive

## c1ccc(C2CCC3CCCN32)cc1 (stereo unspecified)
Mus musculus [5]
  ED50: 5.7 mg/kg
Mus musculus [7]
  ED50: > 25 mg/kg

## Brc1ccccc1[C@H]1CC[C@H]2CCCCN21.Cl (racemic)
[8]
  Ki: 1120 nM

## Brc1ccccc1[C@H]1CC[C@H]2CCCCN21 (racemic)
[9]
  Response: 7%
[10]
  Response: -18%
[11]
  Response: 6%
[12]
  Response: 0%
[13]
  Response: 2%
[14]
  Response: 17%
[15]
  Response: 1%
[16]
  Response: -3%

## Brc1ccccc1[C@H]1CC[C@H]2CCCCN21.Cl (stereo in doubt; (+)2a)
[17]
  Ki: 1200 nM

## Brc1ccccc1[C@H]1CC[C@H]2CCCCN21 (stereo in doubt; (+)2a)
[13]
  Response: 4%
[15]
  Response: 6%
[16]
  Response: -1%

## Brc1ccccc1[C@H]1CC[C@H]2CCCCN21.Cl (stereo in doubt; (-)2a)
[17]
  Ki: 2840 nM

## Brc1ccccc1[C@H]1CC[C@H]2CCCCN21 (stereo in doubt; (-)2a)
[13]
  Response: -2%
[15]
  Response: 2%
[16]
  Response: -5%

## COc1ccc2c3c1O[C@H]1[C@@H](O)C=C[C@H]4[C@@H](C2)N(C)CC[C@@]341.COc1ccc2c3c1O[C@H]1[C@@H](O)C=C[C@H]4[C@@H](C2)N(C)CC[C@@]341.O.O=P(O)(O)O.O=P(O)(O)O [CODEINE PHOSPHATE]
Mus musculus [5]
  ED50: 11.1 mg/kg
Mus musculus [7]
  ED50: 30 mg/kg

## CC(C)Cc1ccc(C(C)C(=O)O)cc1 (stereo unspecified) [IBUPROFEN]
Mus musculus [5]
  ED50: 15.7 mg/kg
Mus musculus [6]
  ED50: inactive
